Measured values from patent US10800792B2, “Inhibitors of Bruton's tyrosine kinase and method of their use” (JANSSEN PHARMACEUTICA NV, priority 2015, dated 2020).

Biological target: unphosphorylated-BTK kinase domain (UP-BTK), GST-tagged human BTK (389-659aa) (Homo sapiens (Human), UniProt Q06187)
Experiment: BTK kinase Lanthascreen binding assay
Conditions: unphosphorylated-BTK kinase domain, 50 nM Tracer 236, 60 minutes; pIC50 = negative log of the IC50 in molar
How it was run: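 Measures how well compounds compete with a fluorescence-labelled tracer for binding to BTK in its unphosphorylated state. IC50 values were fitted and expressed as pIC50 (negative logarithm of the molar IC50).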

Sequence of unphosphorylated-BTK kinase domain (UP-BTK), GST-tagged human BTK (389-659aa) (Q06187 389-659): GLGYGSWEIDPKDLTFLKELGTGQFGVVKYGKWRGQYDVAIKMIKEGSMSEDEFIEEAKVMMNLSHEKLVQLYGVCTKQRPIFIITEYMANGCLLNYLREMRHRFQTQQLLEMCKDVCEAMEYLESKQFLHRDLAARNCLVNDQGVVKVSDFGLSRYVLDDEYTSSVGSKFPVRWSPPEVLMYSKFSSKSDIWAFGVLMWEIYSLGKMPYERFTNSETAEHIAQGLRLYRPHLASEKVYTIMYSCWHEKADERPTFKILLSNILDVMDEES

Row | BTK_I_binding pIC50 | Compound
1 | 7.6 | CN(C)C/C=C/C(=O)N1CC[C@@H](NC(=O)c2sc3nccc4c3c2NC(=O)N4c2ccc(Oc3ccccc3)cc2)C1 [Example 440, (R,E)-N-(1-(4-(Dimethylamino)but-2-enoyl)pyrrolidin-3-yl)-4-oxo-5-(4-phenoxyphenyl)-4,5-dihydro-3H-1-thia-3,5,8-triazaacenaphthylene-2-carboxamide]
2 | 7.7 | C=CC(=O)N1CC[C@@H](NC(=O)c2sc3nccc4c3c2NC(=O)N4c2ccc(Oc3ccccc3)cc2)C1 [Example 443, (R)—N-(1-Acryloylpyrrolidin-3-yl)-4-oxo-5-(4-phenoxyphenyl)-4,5-dihydro-3H-1-thia-3,5,8-triazaacenaphthylene-2-carboxamide]
3 | 7.2 | C=CC(=O)N1CCC[C@@H](NC(=O)c2sc3nccc4c3c2NC(=O)N4c2ccc(C(C)C)cc2C)C1 [Example 444, (R)—N-(1-Acryloylpiperidin-3-yl)-5-(4-isopropyl-2-methylphenyl)-4-oxo-4,5-dihydro-3H-1-thia-3,5,8-triazaacenaphthylene-2-carboxamide]
4 | 6.7 | C=CC(=O)N1CC[C@@H](NC(=O)c2sc3nccc4c3c2NC(=O)N4c2ccc(C(C)C)cc2C)C1 [Example 445, (R)—N-(1-Acryloylpyrrolidin-3-yl)-5-(4-isopropyl-2-methylphenyl)-4-oxo-4,5-dihydro-3H-1-thia-3,5,8-triazaacenaphthylene-2-carboxamide]
5 | 5.8 | Cc1cc(C(C)C)ccc1N1C(=O)Nc2c(C(=O)N[C@@H]3CCCNC3)sc3nccc1c23 [Example 446, (R)-5-(4-Isopropyl-2-methylphenyl)-4-oxo-N-(piperidin-3-yl)-4,5-dihydro-3H-1-thia-3,5,8-triazaacenaphthylene-2-carboxamide]
6 | 5.6 | Cc1cc(C(C)C)ccc1N1C(=O)Nc2c(C(=O)N[C@@H]3CCCN(C)C3)sc3nccc1c23 [Example 447, (R)-5-(4-Isopropyl-2-methylphenyl)-N-(1-methylpiperidin-3-yl)-4-oxo-4,5-dihydro-3H-1-thia-3,5,8-triazaacenaphthylene-2-carboxamide]
7 | 7.0 | C=CC(=O)N1CCC(CNC(=O)c2sc3nccc4c3c2NC(=O)N4c2ccc(Oc3ccccc3)cc2)C1 (centres unmarked) [Example 452, N-((1-Acryloylpyrrolidin-3-yl)methyl)-4-oxo-5-(4-phenoxyphenyl)-4,5-dihydro-3H-1-thia-3,5,8-triazaacenaphthylene-2-carboxamide]
8 | 6.4 | O=C(NCC1CCNC1)c1sc2nccc3c2c1NC(=O)N3c1ccc(Oc2ccccc2)cc1 (centres unmarked) [Example 453, 4-Oxo-5-(4-phenoxyphenyl)-N-(pyrrolidin-3-ylmethyl)-4,5-dihydro-3H-1-thia-3,5,8-triazaacenaphthylene-2-carboxamide]
9 | <5 | O=C(N[C@@H]1CCCN(C(=O)n2ccnc2)C1)c1sc2nccc3c2c1NC(=O)N3c1ccc2c(c1)OC(F)(F)O2 [Example 454, (R)—N-(1-(1H-Imidazole-1-carbonyl)piperidin-3-yl)-5-(2,2-difluorobenzo[d][1.3]dioxol-5-yl)-4-oxo-4,5-dihydro-3H-1-thia-3,5,8-triazaacenaphthylene-2-carboxamide]
10 | <5 | C=CC(=O)N1CCC[C@@H](NC(=O)c2sc3nccc4c3c2NC(=O)N4c2ccc(OC)c(C(F)(F)F)c2)C1 [Example 455, (R)—N-(1-Acryloylpiperidin-3-yl)-5-(4-methoxy-3-(trifluoromethyl)phenyl)-4-oxo-4,5-dihydro-3H-1-thia-3,5,8-triazaacenaphthylene-2-carboxamide]

Row | Compound | BTK_I_binding pIC50
11 | C=CC(=O)N1CCC[C@@H](NC(=O)c2sc3nccc4c3c2NC(=O)N4c2ccc(OC3CCC3)cc2C)C1 [Example 456, (R)—N-(1-Acryloylpiperidin-3-yl)-5-(4-cyclobutoxy-2-methylphenyl)-4-oxo-4,5-dihydro-3H-1-thia-3,5,8-triazaacenaphthylene-2-carboxamide] | 7.7
